How the values were obtained:
[1] = Metabolic stability in liver microsome (mouse); assay type: in vitro ADME
Description: (§1) Test Example 5. Assay of Metabolic Stability in Liver Microsome
(§2) 1. Experimental objective: The objective of the experiment is to determine the stability of the compounds of the Examples in liver microsome of mouse, rat, dog and human.
(§3) 2.1 Formulation of the working solution of the compound: Formulation of the working solution of the compound: The stock solution of the compound was added to phosphate buffer, and the final concentration was 20 μM.
(§4) 2.2 Formulation of the working solution of liver microsome: Liver microsome was diluted with 100 mM phosphate buffer to obtain a final concentration of 0.625 mg/mL.
(§5) 2.3 Formulation of NADPH and UDPGA: NADPH (reduced nicotinamide adenine dinucleotide phosphate) and UDPGA (uridine diphosphate glucuronic acid) were weighed respectively, followed by addition of 100 mM phosphate buffer. The final concentrations were 20 mM.
(§6) 2.4 Formulation of the channel-forming reagent: 1 mg of Alamethicin was weighed, to which 200 μL of DMSO was added to obtain a 5 mg/mL solution. The solution was diluted with phosphate buffer to obtain a final concentration of 50 μg/mL.
(§7) 2.5 Formulation of the reaction stop solution: Stop solution: Cold acetonitrile containing 100 ng/mL labetalol hydrochloride and 400 ng/mL tolbutamide as internal standards.
(§8) 2.6 Incubation procedure: 400 μL of the prepared liver microsome, 25 μL of the working solution of the compound and 25 μL of Alamethicin were added to a 96-well plate successively, which was then pre-incubated at 37° C. for 10 minutes. 50 μL of the prepared NADPH/UDPGA was added to initiate the reaction, and the plate was incubated at 37° C. The total volume of the reaction system was 500 μL. The final contents of the components were as follows:
(§9) 2.7.1 Chromatographic conditions: • Instrument: Shimadzu LC-30 AD; Chromatographic column: XBridge® C18 (50*4.6 mm, particle size: 5 μm); • Mobile phase: A: 0.1% formic acid solution, B: methanol • Eluent gradient: 0.2˜1.6 min 5% A to 95% A, 3.0˜3.1 min 95% A to 5% A • Running time: 4.0 min.
(§10) 2.7.2 Mass spectrometry conditions: • Instrument: API5500 liquid chromatography-mass spectrometer, AB Sciex; • Ion source: Electrospray ionization source (ESI); Drying gas: N2, temperature: 500° C.; • Electrospray voltage: 5000V; Detection method: Positive ion detection; • Scanning mode: Mode of reaction monitoring (MRM).

[2] = Metabolic stability in liver microsome (human); assay type: in vitro ADME; settings: for Human Remaining (%, 60 min): human liver microsome
Description: as §1, §2, §3, §4, §5, §6, §7, §8, §9, §10

[3] = Metabolic stability in liver microsome (dog); assay type: in vitro ADME; settings: for Dog Remaining (%, 60 min): dog liver microsome
Description: as §1, §2, §3, §4, §5, §6, §7, §8, §9, §10

BALB/c mice = assay: Taste sensitivity assay in BALB/c mice (quinine solution intake); assay type: in vivo; settings: 30 mpk; for Solution consumption of single mouse, Quinine solution: 3 mmol/L quinine hydrochloride, 30 min
Source text: Test Example 9. Taste Sensitivity Assay in BALB/c Mice
1. Experimental objective: In this assay, compounds with less toxic and side effects on animal taste were screened by quinine bitter solution experiment.
2.2 Reagents: Quinine monohydrochloride dihydrate (6119-47-7, Adamas).
2.3 Animals: BALB/c mice, 6 to 8 weeks old, ♂, purchased from Shanghai SIPPR-BK Laboratory Animal Co., Ltd.
3.1 Animal screening: One day before the experiment, all BALB/c mice were weighed, and animals with too high or too low body weight were excluded.
3.2 Grouping and water deprivation: BALB/c mice were randomly grouped according to body weight, and were deprived of water 12 to 16 hours before administration with no fasting.
3.3 Formulation of aqueous solution of quinine: An appropriate amount of quinine monohydrochloride dihydrate was weighed and formulated into an aqueous solution quinine hydrochloride (concentration: 3 mmol/L) with ultrapure water for later use.
3.4 Formulation of test compound: An appropriate amount of the test compound was weighed and formulated into the target concentration with the corresponding solvent according to the experimental design for later use.
3.5 Administration and quinine solution intake assay in animal: Administration and fasting: On the day of the experiment, the animals were weighed and fasted, bedding was changed, and the compounds were administered according to the experimental design.
1. The corresponding clean mouse drinking bottle was rinsed 2 to 3 times with ultrapure water and the formulated 3 mmol/L aqueous solution of quinine hydrochloride respectively. The bottle was filled and weighed, and the weight was recorded as Wi0.
2. According to the experimental design, a certain period after administration, the filled bottle was gently placed in the corresponding mouse cage, and the timing was started. After 30 min, the bottle was gently taken out and weighed, and the weight was recorded as Wi30.
3. Calculation of solution consumption of animals in each group: ΔWW(g)=[…]; calculation of solution consumption of single mouse: ΔpWW(g)=ΔWW/N, N is the number of animals in each group.
4. Dysgeusia rate=(ΔpWW of the group in which the drinking water was the aqueous solution of quinine hydrochloride and the test compound was administered at the same time−ΔpWW of the group in which the drinking water was the aqueous solution of quinine hydrochloride and the solvent control was administered at the same time)/(ΔpWW of the group in which the drinking water was ultrapure water and the solvent control was administered at the same time−ΔpWW of the group in which the drinking water was the aqueous solution of quinine hydrochloride and the solvent control was administered at the same time)×100%. Data processing was performed with software such as Excel.

[4] = Metabolic stability in liver microsome (rat); assay type: in vitro ADME; settings: for Rat Remaining (%, 60 min): rat liver microsome
Description: as §1, §2, §3, §4, §5, §6, §7, §8, §9, §10

Compound	Mouse Remaining (%, 60 min) [1] [%]	Human t1/2 ([2]; human liver microsome 0.5 mg/mL, compound 1 μM, NADPH/UDPGA)	Human Remaining (%, 60 min) [2] [%]	Dog t1/2 ([3]; dog liver microsome 0.5 mg/mL, compound 1 μM, NADPH/UDPGA) [h]	Dog Remaining (%, 60 min) [3] [%]	Dysgeusia rate (BALB/c mice) [%]	Solution consumption of single mouse, Quinine solution (BALB/c mice) [g]	Rat Remaining (%, 60 min) [4] [%]	Rat t1/2 ([4]; rat liver microsome 0.5 mg/mL, compound 1 μM, NADPH/UDPGA)
O=C(Cn1c(=O)c2ccc(C(F)(F)F)nc2n2nc(Br)cc12)Nc1ccc(F)cn1 [Example 15, 2-(2-bromo-5-oxo-8-(trifluoromethyl)pyrazolo[1,5-a]pyrido[3,2-e]pyrimidin-4(5H)-yl)-N-(5-fluoropyridin-2-yl)acetamide]	92.5	∞	100.4	15.62	96.0	−3.77	0.048	102.3	
O=C(Cn1c(=O)c2ccc(C(F)(F)F)nc2n2nccc12)Nc1ccc(F)cn1 [Example 18, N-(5-Fluoropyridin-2-yl)-2-(5-oxo-8-(trifluoromethyl)pyrazolo[1,5-a]pyrido[3,2-e]pyrimidin-4(5H)-yl)acetamide]	99.3		97.5		93.4	−9.81	0.016	98.9	
N#Cc1cc2n(CC(=O)Nc3ccc(F)cn3)c(=O)c3ccc(C(F)(F)F)nc3n2n1 [Example 17, 2-(2-Cyano-5-oxo-8-(trifluoromethyl)pyrazolo[1,5-a]pyrido[3,2-e]pyrimidin-4(5H)-yl)-N-(5-fluoropyridin-2-yl)acetamide]	91.6		101.2		99.0	−2.26	0.056	106.4	∞
